Assay results reported in the supplement of paper PMC10307832.

What was measured:
Assay in all cases: relative viability (nuclei count vs DMSO), 5 days (fraction); higher = more cells survive
Pictilisib + OSI-027 = compound: CS(=O)(=O)N1CCN(Cc2cc3nc(-c4cccc5[nH]ncc45)nc(N4CCOCC4)c3s2)CC1 [Pictilisib] + COc1cccc2cc(-c3nc([C@H]4CC[C@H](C(=O)O)CC4)n4ncnc(N)c34)[nH]c12 [OSI-027] (partner 0.5 µM)
Method in brief: (§1)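 For relative viability, nuclei counts in treated wells were divided by those in vehicle wells. Lung cancer cell lines had been pin-tool dosed in 1536-well plates the day after seeding and cultured for 5 days, then fixed and stained in one step (final 0.05% Triton X-100, 1% formaldehyde, 1 ug/ml Hoechst) and imaged at 4×. Doses were one drug alone or a fixed anchor-drug dose plus five library-drug doses (not always all listed) in √10 steps, and values are duplicate-plate medians.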

Pictilisib + Crizotinib = compound: CS(=O)(=O)N1CCN(Cc2cc3nc(-c4cccc5[nH]ncc45)nc(N4CCOCC4)c3s2)CC1 [Pictilisib] + C[C@@H](Oc1cc(-c2cnn(C3CCNCC3)c2)cnc1N)c1c(Cl)ccc(F)c1Cl [Crizotinib] (partner 1 µM)
Method in brief: as §1

Pictilisib + Alpelisib = compound: CS(=O)(=O)N1CCN(Cc2cc3nc(-c4cccc5[nH]ncc45)nc(N4CCOCC4)c3s2)CC1 [Pictilisib] + Cc1nc(NC(=O)N2CCC[C@H]2C(N)=O)sc1-c1ccnc(C(C)(C)C(F)(F)F)c1 [Alpelisib] (partner 2 µM)
Method in brief: as §1

Pictilisib + Dasatinib = compound: CS(=O)(=O)N1CCN(Cc2cc3nc(-c4cccc5[nH]ncc45)nc(N4CCOCC4)c3s2)CC1 [Pictilisib] + Cc1nc(Nc2ncc(C(=O)Nc3c(C)cccc3Cl)s2)cc(N2CCN(CCO)CC2)n1 [Dasatinib] (partner 0.075 µM)
Method in brief: as §1

MK-2206 + Palbociclib = compound: NC1(c2ccc(-c3nc4ccn5c(=O)[nH]nc5c4cc3-c3ccccc3)cc2)CCC1 [MK-2206] + CC(=O)c1c(C)c2cnc(Nc3ccc(N4CCNCC4)cn3)nc2n(C2CCCC2)c1=O [Palbociclib] (partner 0.5 µM)
Method in brief: as §1

Row | Cell Line | relative viability (Pictilisib + OSI-027; first compound 0.02 µM) | relative viability (Pictilisib + OSI-027; first compound 0.06325 µM) | relative viability (Pictilisib + OSI-027; first compound 0.6325 µM) | relative viability (Pictilisib + OSI-027; first compound 2 µM) | relative viability (Pictilisib + Crizotinib; first compound 0.02 µM) | relative viability (Pictilisib + Crizotinib; first compound 0.06325 µM) | relative viability (Pictilisib + Crizotinib; first compound 0.6325 µM) | relative viability (Pictilisib + Crizotinib; first compound 2 µM) | relative viability (Pictilisib + Alpelisib; first compound 0.02 µM) | relative viability (Pictilisib + Alpelisib; first compound 0.06325 µM) | relative viability (Pictilisib + Alpelisib; first compound 0.6325 µM) | relative viability (Pictilisib + Alpelisib; first compound 2 µM) | relative viability (Pictilisib + Dasatinib; first compound 0.02 µM) | relative viability (Pictilisib + Dasatinib; first compound 0.06325 µM) | relative viability (Pictilisib + Dasatinib; first compound 0.6325 µM) | relative viability (Pictilisib + Dasatinib; first compound 2 µM) | relative viability (MK-2206 + Palbociclib; first compound 0.01 µM) | relative viability (MK-2206 + Palbociclib; first compound 0.03162 µM) | relative viability (MK-2206 + Palbociclib; first compound 0.3162 µM) | relative viability (MK-2206 + Palbociclib; first compound 1 µM)
1 | LK-2 | 0.183 | 0.208 | 0.15 | 0.142 | 0.251 | 0.23 | 0.239 | 0.23 | 1.16 | 1.06 | 0.925 | 0.905 | 0.278 | 0.324 | 0.185 | 0.185 | 0.605 | 0.881 | 0.68 | 0.457
2 | LOU-NH91 | 0.747 | 0.757 | 0.666 | 0.464 | 0.725 | 0.708 | 0.716 | 0.571 | 0.742 | 0.741 | 0.697 | 0.585 | 0.581 | 0.546 | 0.443 | 0.359 | 0.531 | 0.46 | 0.507 | 0.547
3 | LU99A | 0.286 | 0.262 | 0.263 | 0.214 | 0.56 | 0.545 | 0.44 | 0.346 | 0.461 | 0.61 | 0.413 | 0.287 | 0.514 | 0.567 | 0.281 | 0.204 | 0.41 | 0.419 | 0.413 | 0.35
4 | LXF-289 | 0.817 | 0.827 | 0.566 | 0.397 | 0.862 | 0.837 | 0.843 | 0.752 | 1.08 | 1.07 | 1.06 | 0.822 | 0.189 | 0.212 | 0.104 | 0.0692 | 0.581 | 0.628 | 0.594 | 0.576
5 | NCI-H23 | 0.708 | 0.625 | 0.392 | 0.25 | 0.424 | 0.592 | 0.344 | 0.354 | 0.728 | 0.77 | 0.827 | 0.487 | 0.864 | 0.863 | 0.487 | 0.234 | 0.555 | 0.5 | 0.427 | 0.459
6 | NCI-H322M | 0.546 | 0.538 | 0.366 | 0.392 | 0.834 | 0.936 | 0.878 | 0.834 | 0.845 | 0.8 | 0.872 | 0.684 | 0.226 | 0.253 | 0.271 | 0.243 | 0.51 | 0.469 | 0.519 | 0.527
7 | NCI-H358 | 0.684 | 0.664 | 0.357 | 0.127 | 0.658 | 0.455 | 0.607 | 0.408 | 0.831 | 0.981 | 0.769 | 0.595 | 0.147 | 0.148 | 0.123 | 0.0945 | 0.16 | 0.124 | 0.138 | 0.141
8 | NCI-H441 | 0.486 | 0.552 | 0.38 | 0.307 | 0.513 | 0.632 | 0.504 | 0.388 | 0.735 | 0.833 | 0.698 | 0.541 | 0.639 | 0.528 | 0.352 | 0.256 | 0.226 | 0.206 | 0.207 | 0.167
9 | NCI-H460 | 0.612 | 0.576 | 0.212 | 0.0454 | 0.956 | 0.945 | 0.501 | 0.0993 | 0.509 | 0.521 | 0.301 | 0.141 | 0.531 | 0.545 | 0.205 | 0.0803 | 0.137 | 0.224 | 0.142 | 0.0552
10 | NCI-H520 | 0.239 | 0.332 | 0.156 | 0.171 | 0.826 | 0.884 | 0.504 | 0.197 | 0.996 | 0.815 | 0.724 | 0.267 | 0.176 | 0.135 | 0.146 | 0.114 | 0.215 | 0.218 | 0.153 | 0.149
11 | NCI-H647 | 0.598 | 0.709 | 0.403 | 0.182 | 1.16 | 1.18 | 0.884 | 0.524 | 1.09 | 1.26 | 0.894 | 0.467 | 0.195 | 0.172 | 0.108 | 0.0934 | 0.389 | 0.403 | 0.349 | 0.264
12 | NCI-H650 | 0.563 | 0.555 | 0.425 | 0.321 | 0.762 | 0.712 | 0.629 | 0.642 | 1.05 | 1.15 | 1 | 0.888 | 0.498 | 0.497 | 0.41 | 0.333 | 0.292 | 0.328 | 0.311 | 0.309
13 | NCI-H661 | 0.687 | 0.682 | 0.499 | 0.261 |  | 1.01 | 1.24 | 0.729 | 0.598 | 0.794 | 0.579 | 0.373 | 0.942 | 0.878 | 0.439 | 0.304 | 0.428 | 0.42 | 0.354 | 0.349
14 | NCI-H727 | 0.741 | 0.649 | 0.548 | 0.333 | 0.934 | 0.912 | 0.76 | 0.401 | 0.715 | 0.55 | 0.519 | 0.376 | 0.319 | 0.38 | 0.292 | 0.342 | 0.775 | 0.658 | 0.638 | 0.625
15 | NCI-H838 | 0.328 | 0.308 | 0.242 | 0.189 | 0.871 | 0.795 | 0.76 | 0.497 | 1.04 | 0.968 | 1.02 | 0.467 | 0.346 | 0.277 | 0.279 | 0.217 | 0.223 | 0.226 | 0.203 | 0.193
16 | NCI-H1355 | 0.412 | 0.358 | 0.232 | 0.237 | 1.1 | 0.983 | 0.876 | 0.606 | 0.828 | 0.741 | 0.865 | 0.505 | 0.645 | 0.711 | 0.469 | 0.331 | 0.39 | 0.392 | 0.362 | 0.329
17 | NCI-H1437 | 0.855 | 0.685 | 0.619 | 0.289 | 0.941 | 0.952 | 1.03 | 0.652 | 0.932 | 0.912 | 0.68 | 0.566 | 0.445 | 0.386 | 0.255 | 0.178 | 0.304 | 0.332 | 0.336 | 0.286
18 | NCI-H1651 | 0.643 | 0.584 | 0.565 | 0.291 | 0.855 | 0.863 | 0.84 | 0.683 | 0.969 | 0.906 | 0.765 | 0.516 | 0.35 | 0.387 | 0.358 | 0.201 | 0.506 | 0.536 | 0.486 | 0.482
19 | NCI-H1666 | 0.877 | 0.858 | 0.636 | 0.477 | 1.07 | 1.05 | 0.815 | 0.491 | 0.982 | 0.989 | 0.748 | 0.428 | 0.805 | 0.876 | 0.568 | 0.523 | 0.63 | 0.675 | 0.652 | 0.586
20 | NCI-H1734 | 0.552 | 0.554 | 0.291 | 0.224 | 0.739 | 0.648 | 0.43 | 0.296 | 0.709 | 0.588 | 0.546 | 0.406 | 0.451 | 0.424 | 0.281 | 0.182 | 0.238 | 0.369 | 0.28 | 0.264
21 | NCI-H1755 | 0.684 | 0.666 | 0.41 | 0.279 | 0.848 | 0.829 | 0.827 | 0.546 | 0.924 | 0.939 | 0.892 | 0.506 | 0.406 | 0.415 | 0.246 | 0.187 | 0.461 | 0.419 | 0.388 | 0.43
22 | NCI-H1792 | 0.752 | 0.617 | 0.335 | 0.173 | 0.916 | 0.925 | 0.772 | 0.425 | 0.72 | 0.715 | 0.657 | 0.36 | 0.811 | 0.795 | 0.417 | 0.228 | 0.631 | 0.751 | 0.609 | 0.653
23 | NCI-H1915 | 0.618 | 0.616 | 0.639 | 0.533 | 0.855 | 1 | 0.889 | 0.898 | 1.08 | 1.11 | 0.998 | 1.07 | 0.326 | 0.317 | 0.304 | 0.286 | 0.594 | 0.612 | 0.499 | 0.505
24 | NCI-H1944 | 0.403 | 0.345 | 0.249 | 0.179 | 1.11 | 0.962 | 0.933 | 0.603 | 0.817 | 0.776 | 0.732 | 0.472 | 0.231 | 0.186 | 0.164 | 0.173 | 0.338 | 0.332 | 0.3 | 0.296
25 | NCI-H1975 | 0.867 | 0.574 | 0.234 | 0.212 | 0.915 | 0.9 | 0.713 | 0.307 | 0.69 | 0.564 | 0.41 | 0.227 | 0.368 | 0.242 | 0.105 | 0.144 | 0.604 | 0.529 | 0.49 | 0.168
26 | NCI-H1993 | 0.514 | 0.47 | 0.592 | 0.646 | 0.766 | 0.691 | 0.726 | 0.638 | 0.656 | 0.712 | 0.663 | 0.625 | 0.508 | 0.467 | 0.483 | 0.58 | 0.638 | 0.74 | 0.545 | 0.471
